Test results taken from the NIST ThermoML archive (doi:10.1021/je900387e).
Numbers after ± are expanded uncertainties.

Assay: xn = mol fraction of the nth substance listed
Settings: 332.4 K, Liquid, Pycnometric method

Cn1ccnc1 [1-methylimidazole] + O=C=O
Settings	mass density [kg/m3]
13350 kPa, x1 = 0.0102	600 ± 4
13550 kPa, x1 = 0.0247	668 ± 4
13560 kPa, x1 = 0.0102	612 ± 4
13730 kPa, x1 = 0.0247	675 ± 4
13790 kPa, x1 = 0.0102	623 ± 4
13890 kPa, x1 = 0.0247	681 ± 4
13960 kPa, x1 = 0.0247	684 ± 4
14040 kPa, x1 = 0.0102	636 ± 4
14140 kPa, x1 = 0.0247	690 ± 4
14320 kPa, x1 = 0.0102	649 ± 4
14330 kPa, x1 = 0.0247	696 ± 4
14520 kPa, x1 = 0.0247	703 ± 4
14640 kPa, x1 = 0.0102	663 ± 4
14740 kPa, x1 = 0.0247	709 ± 4
14970 kPa, x1 = 0.0247	716 ± 4
15030 kPa, x1 = 0.0102	677 ± 4
15220 kPa, x1 = 0.0247	723 ± 4
15450 kPa, x1 = 0.0487	779 ± 4
15480 kPa, x1 = 0.0102	692 ± 4
15480 kPa, x1 = 0.0247	730 ± 4
15710 kPa, x1 = 0.0487	784 ± 4
15750 kPa, x1 = 0.0247	737 ± 4
15920 kPa, x1 = 0.0487	789 ± 4
15960 kPa, x1 = 0.0247	742 ± 4
15970 kPa, x1 = 0.0102	707 ± 4
16130 kPa, x1 = 0.0487	794 ± 4
16190 kPa, x1 = 0.0247	747 ± 4
16260 kPa, x1 = 0.0487	797 ± 4
16390 kPa, x1 = 0.0487	799 ± 4
16430 kPa, x1 = 0.0247	752 ± 4
16520 kPa, x1 = 0.0487	801 ± 4
16570 kPa, x1 = 0.0102	723 ± 4
16650 kPa, x1 = 0.0487	804 ± 4
16720 kPa, x1 = 0.0247	758 ± 4
16830 kPa, x1 = 0.0487	806 ± 4
16910 kPa, x1 = 0.0247	762 ± 4
16970 kPa, x1 = 0.0487	809 ± 4
17090 kPa, x1 = 0.0247	766 ± 4
17130 kPa, x1 = 0.0487	811 ± 4
17260 kPa, x1 = 0.0102	740 ± 4
17260 kPa, x1 = 0.0487	814 ± 4
17300 kPa, x1 = 0.0247	770 ± 4
17440 kPa, x1 = 0.0487	817 ± 4
17510 kPa, x1 = 0.0247	774 ± 4
17520 kPa, x1 = 0.1024	890 ± 4
17590 kPa, x1 = 0.0487	819 ± 4
17680 kPa, x1 = 0.1024	892 ± 4
17730 kPa, x1 = 0.1024	892 ± 4
17750 kPa, x1 = 0.0487	821 ± 4
17800 kPa, x1 = 0.0247	779 ± 4
17800 kPa, x1 = 0.1024	893 ± 4
17890 kPa, x1 = 0.1024	894 ± 4
17920 kPa, x1 = 0.0487	824 ± 4
17960 kPa, x1 = 0.1024	895 ± 4
18040 kPa, x1 = 0.1024	896 ± 4
18060 kPa, x1 = 0.0102	757 ± 4
18090 kPa, x1 = 0.1024	896 ± 4
18120 kPa, x1 = 0.0487	827 ± 4
18150 kPa, x1 = 0.1024	897 ± 4
18200 kPa, x1 = 0.1024	897 ± 4
18250 kPa, x1 = 0.1024	898 ± 4
18280 kPa, x1 = 0.0487	829 ± 4
18310 kPa, x1 = 0.1024	899 ± 4
18400 kPa, x1 = 0.1024	900 ± 4
18470 kPa, x1 = 0.1024	900 ± 4
18480 kPa, x1 = 0.0487	832 ± 4
18530 kPa, x1 = 0.1024	901 ± 4
18580 kPa, x1 = 0.1024	901 ± 4
18620 kPa, x1 = 0.0102	769 ± 4
18620 kPa, x1 = 0.1024	902 ± 4
18670 kPa, x1 = 0.0487	835 ± 4
